Measurements as given in ChEMBL document CHEMBL4138146, “A Schmidt rearrangement-mediated synthesis of novel tetrahydro-benzo[1,4]diazepin-5-ones as potential anticancer and antiprotozoal agents” (Eur J Med Chem, 2017).

Legend:
Assay type in all cases: functional
[1] = tested on: UACC-62; test: Growth inhibition of human UACC62 cells assessed as cell growth at 10 uM incubated for 48 hrs by sulforhodamine B assay relative to control; details: UACC-62, 48 h, read-out: Activity
[2] = tested on: OVCAR-5; test: Growth inhibition of human OVCAR5 cells assessed as cell growth at 10 uM incubated for 48 hrs by sulforhodamine B assay relative to control; details: OVCAR-5, 48 h, read-out: Activity
[3] = tested on: HOP-92; test: Growth inhibition of human HOP92 cells assessed as cell growth at 10 uM incubated for 48 hrs by sulforhodamine B assay relative to control; details: HOP-92, 48 h, read-out: Activity
[4] = tested on: OVCAR-4; test: Growth inhibition of human OVCAR4 cells assessed as cell growth at 10 uM incubated for 48 hrs by sulforhodamine B assay relative to control; details: OVCAR-4, 48 h, read-out: Activity
[5] = tested on: SNB-75; test: Growth inhibition of human SNB75 cells assessed as cell growth at 10 uM incubated for 48 hrs by sulforhodamine B assay relative to control; details: SNB-75, 48 h, read-out: Activity
[6] = tested on: UO-31; test: Growth inhibition of human UO31 cells assessed as cell growth at 10 uM incubated for 48 hrs by sulforhodamine B assay relative to control; details: UO-31, 48 h, read-out: Activity
[7] = tested on: NCI-H23; test: Growth inhibition of human NCI-H23 cells assessed as cell growth at 10 uM incubated for 48 hrs by sulforhodamine B assay relative to control; details: NCI-H23, 48 h, read-out: Activity
[8] = tested on: CCRF-CEM; test: Growth inhibition of human CCRF-CEM cells assessed as cell growth at 10 uM incubated for 48 hrs by sulforhodamine B assay relative to control; details: read-out: Activity
[9] = tested on: COLO 205; test: Growth inhibition of human COLO205 cells assessed as cell growth at 10 uM incubated for 48 hrs by sulforhodamine B assay relative to control; details: COLO 205, 48 h, read-out: Activity
[10] = tested on: MDA-MB-435; test: Growth inhibition of human MDA-MB-435 cells assessed as cell growth at 10 uM incubated for 48 hrs by sulforhodamine B assay relative to control; details: MDA-MB-435, 48 h, read-out: Activity
[11] = tested on: HCC 2998; test: Growth inhibition of human HCC2998 cells assessed as cell growth at 10 uM incubated for 48 hrs by sulforhodamine B assay relative to control; details: HCC 2998, 48 h, read-out: Activity
[12] = tested on: SF-268; test: Growth inhibition of human SF268 cells assessed as cell growth at 10 uM incubated for 48 hrs by sulforhodamine B assay relative to control; details: SF-268, 48 h, read-out: Activity
[13] = tested on: HT-29; test: Growth inhibition of human HT-29 cells assessed as cell growth at 10 uM incubated for 48 hrs by sulforhodamine B assay relative to control; details: HT-29, 48 h, read-out: Activity
[14] = tested on: NCI/ADR-RES; test: Growth inhibition of human NCI/ADR-RES cells assessed as cell growth at 10 uM incubated for 48 hrs by sulforhodamine B assay relative to control; details: read-out: Activity
[15] = tested on: NCI-H226; test: Growth inhibition of human NCI-H226 cells assessed as cell growth at 10 uM incubated for 48 hrs by sulforhodamine B assay relative to control; details: NCI-H226, 48 h, read-out: Activity
[16] = tested on: HOP-62; test: Growth inhibition of human HOP62 cells assessed as cell growth at 10 uM incubated for 48 hrs by sulforhodamine B assay relative to control; details: HOP-62, 48 h, read-out: Activity
[17] = tested on: ACHN; test: Growth inhibition of human ACHN cells assessed as cell growth at 10 uM incubated for 48 hrs by sulforhodamine B assay relative to control; details: read-out: Activity
[18] = tested on: BT-549; test: Growth inhibition of human BT549 cells assessed as cell growth at 10 uM incubated for 48 hrs by sulforhodamine B assay relative to control; details: BT-549, 48 h, read-out: Activity
[19] = tested on: PC-3; test: Growth inhibition of human PC3 cells assessed as cell growth at 10 uM incubated for 48 hrs by sulforhodamine B assay relative to control; details: PC-3, 48 h, read-out: Activity
[20] = tested on: A498; test: Growth inhibition of human A498 cells assessed as cell growth at 10 uM incubated for 48 hrs by sulforhodamine B assay relative to control; details: A498, 48 h, read-out: Activity
[21] = tested on: SK-MEL-5; test: Growth inhibition of human SK-MEL-5 cells assessed as cell growth at 10 uM incubated for 48 hrs by sulforhodamine B assay relative to control; details: SK-MEL-5, 48 h, read-out: Activity
[22] = tested on: T47D; test: Growth inhibition of human T47D cells assessed as cell growth at 10 uM incubated for 48 hrs by sulforhodamine B assay relative to control; details: read-out: Activity
[23] = tested on: M14; test: Growth inhibition of human M14 cells assessed as cell growth at 10 uM incubated for 48 hrs by sulforhodamine B assay relative to control; details: M14, 48 h, read-out: Activity
[24] = tested on: MDA-MB-231; test: Growth inhibition of human MDA-MB-231 cells assessed as cell growth at 10 uM incubated for 48 hrs by sulforhodamine B assay relative to control; details: MDA-MB-231, 48 h, read-out: Activity
[25] = tested on: MDA-MB-468; test: Growth inhibition of human MDA-MB-468 cells assessed as cell growth at 10 uM incubated for 48 hrs by sulforhodamine B assay relative to control; details: MDA-MB-468, 48 h, read-out: Activity
[26] = tested on: OVCAR-8; test: Growth inhibition of human OVCAR8 cells assessed as cell growth at 10 uM incubated for 48 hrs by sulforhodamine B assay relative to control; details: OVCAR-8, 48 h, read-out: Activity
[27] = tested on: Malme-3M; test: Growth inhibition of human MALME-3M cells assessed as cell growth at 10 uM incubated for 48 hrs by sulforhodamine B assay relative to control; details: read-out: Activity
[28] = tested on: DU-145; test: Growth inhibition of human DU145 cells assessed as cell growth at 10 uM incubated for 48 hrs by sulforhodamine B assay relative to control; details: DU-145, 48 h, read-out: Activity
[29] = tested on: RXF 393; test: Growth inhibition of human RXF393 cells assessed as cell growth at 10 uM incubated for 48 hrs by sulforhodamine B assay relative to control; details: RXF 393, 48 h, read-out: Activity
[30] = tested on: NCI-H522; test: Growth inhibition of human NCI-H522 cells assessed as cell growth at 10 uM incubated for 48 hrs by sulforhodamine B assay relative to control; details: NCI-H522, 48 h, read-out: Activity
[31] = tested on: HCT-116; test: Growth inhibition of human HCT116 cells assessed as cell growth at 10 uM incubated for 48 hrs by sulforhodamine B assay relative to control; details: HCT-116, 48 h, read-out: Activity
[32] = tested on: SF-539; test: Growth inhibition of human SF539 cells assessed as cell growth at 10 uM incubated for 48 hrs by sulforhodamine B assay relative to control; details: SF-539, 48 h, read-out: Activity
[33] = tested on: Hs-578T; test: Growth inhibition of human Hs 578T cells assessed as cell growth at 10 uM incubated for 48 hrs by sulforhodamine B assay relative to control; details: read-out: Activity

CCCCn1c(=O)c(C2CNC(=O)c3ccccc3N2)cc2ccc(Cl)cc21 (configuration not stated)
growth at 10 µM [1]: 80.1%
growth at 10 µM [2]: 109%
growth at 10 µM [3]: 95.9%
growth at 10 µM [4]: 97.8%
growth at 10 µM [5]: 90%
growth at 10 µM [6]: 75.3%
growth at 10 µM [7]: 93.5%
growth at 10 µM [8]: 103%
growth at 10 µM [9]: 89.6%
growth at 10 µM [10]: 103%
growth at 10 µM [11]: 111%
growth at 10 µM [12]: 105%
growth at 10 µM [13]: 98.7%
growth at 10 µM [14]: 101%
growth at 10 µM [15]: 99.6%
growth at 10 µM [16]: 94%
growth at 10 µM [17]: 95.4%
growth at 10 µM [18]: 104%
growth at 10 µM [19]: 93%
growth at 10 µM [20]: 91.3%
growth at 10 µM [21]: 97.9%
growth at 10 µM [22]: 93.6%
growth at 10 µM [23]: 92.6%
growth at 10 µM [24]: 81.1%
growth at 10 µM [25]: 99.8%
growth at 10 µM [26]: 99.3%
growth at 10 µM [27]: 103%
growth at 10 µM [28]: 94.9%
growth at 10 µM [29]: 115%
growth at 10 µM [30]: 88.8%
growth at 10 µM [31]: 73%
growth at 10 µM [32]: 82%
growth at 10 µM [33]: 102%

Cc1cccc2cc(C3CNC(=O)c4ccccc4N3)c(=O)[nH]c12 (configuration not stated)
growth at 10 µM [1]: 106%
growth at 10 µM [2]: 102%
growth at 10 µM [3]: 94.9%
growth at 10 µM [4]: 92.1%
growth at 10 µM [5]: 86.5%
growth at 10 µM [6]: 92.8%
growth at 10 µM [7]: 98.4%
growth at 10 µM [8]: 123%
growth at 10 µM [9]: 108%
growth at 10 µM [10]: 106%
growth at 10 µM [11]: 103%
growth at 10 µM [12]: 99.6%
growth at 10 µM [13]: 81.3%
growth at 10 µM [14]: 103%
growth at 10 µM [15]: 85.6%
growth at 10 µM [16]: 89.6%
growth at 10 µM [17]: 98.6%
growth at 10 µM [18]: 112%
growth at 10 µM [19]: 89.1%
growth at 10 µM [20]: 103%
growth at 10 µM [21]: 102%
growth at 10 µM [22]: 93.1%
growth at 10 µM [23]: 98.4%
growth at 10 µM [24]: 110%
growth at 10 µM [25]: 107%
growth at 10 µM [26]: 103%
growth at 10 µM [27]: 96%
growth at 10 µM [28]: 109%
growth at 10 µM [29]: 106%
growth at 10 µM [30]: 70%
growth at 10 µM [31]: 95.5%
growth at 10 µM [32]: 94.9%
growth at 10 µM [33]: 105%

O=C1NCC(c2cc3ccc(Cl)cc3[nH]c2=O)Nc2ccccc21 (configuration not stated)
growth at 10 µM [1]: 106%
growth at 10 µM [2]: 97.7%
growth at 10 µM [3]: 74%
growth at 10 µM [4]: 94%
growth at 10 µM [5]: 84.3%
growth at 10 µM [6]: 88.7%
growth at 10 µM [7]: 94%
growth at 10 µM [8]: 134%
growth at 10 µM [9]: 94.9%
growth at 10 µM [10]: 104%
growth at 10 µM [11]: 105%
growth at 10 µM [12]: 106%
growth at 10 µM [13]: 72.2%
growth at 10 µM [14]: 99.4%
growth at 10 µM [15]: 79.7%
growth at 10 µM [16]: 81.3%
growth at 10 µM [17]: 101%
growth at 10 µM [18]: 99.9%
growth at 10 µM [19]: 87.1%
growth at 10 µM [20]: 112%
growth at 10 µM [21]: 102%
growth at 10 µM [22]: 66.5%
growth at 10 µM [23]: 96.8%
growth at 10 µM [24]: 118%
growth at 10 µM [25]: 96.5%
growth at 10 µM [26]: 97.8%
growth at 10 µM [27]: 93.4%
growth at 10 µM [28]: 110%
growth at 10 µM [29]: 97.2%
growth at 10 µM [30]: 63.8%
growth at 10 µM [31]: 87.8%
growth at 10 µM [32]: 95%
growth at 10 µM [33]: 113%

CCCCOc1nc2c(C)cccc2cc1C1CNC(=O)c2ccccc2N1 (configuration not stated)
growth at 10 µM [1]: 29.1%
growth at 10 µM [2]: 112%
growth at 10 µM [3]: 62.6%
growth at 10 µM [4]: 71.7%
growth at 10 µM [5]: 56.6%
growth at 10 µM [6]: 67.8%
growth at 10 µM [7]: 80%
growth at 10 µM [8]: 34.3%
growth at 10 µM [9]: 90.8%
growth at 10 µM [10]: 4.51%
growth at 10 µM [11]: 101%
growth at 10 µM [12]: 66.9%
growth at 10 µM [13]: 61.4%
growth at 10 µM [14]: 51.3%
growth at 10 µM [15]: 89%
growth at 10 µM [16]: 56.2%
growth at 10 µM [17]: 66.3%
growth at 10 µM [18]: 74.5%
growth at 10 µM [19]: 40.1%
growth at 10 µM [20]: 55.3%
growth at 10 µM [21]: 43.4%
growth at 10 µM [22]: 58.4%
growth at 10 µM [23]: 54.7%
growth at 10 µM [24]: 65.3%
growth at 10 µM [25]: 51.6%
growth at 10 µM [26]: 81.2%
growth at 10 µM [27]: 86.1%
growth at 10 µM [28]: 86%
growth at 10 µM [29]: 78.3%
growth at 10 µM [30]: 44.8%
growth at 10 µM [31]: 45.9%
growth at 10 µM [32]: 68.3%
growth at 10 µM [33]: 69.7%
